Source: patent publication US20180185414A1, “CALCIUM SALT COMPOSITION AND FILAGGRIN PRODUCTION PROMOTER USING THE SAME” (NISSAN CHEMICAL INDUSTRIES, LTD., priority 2015, published 2018)

Columns and labels:
[1] = system: filaggrin production in human skin keratinocytes (NHEK); assay: Filaggrin production test (A): fluorescent immunostaining with Anti-FLG; type: cell-based; conditions: for Increase rate of brightness: overnight, relative to Lcell of Comparative Test Example 2 (no calcium salt added = 100); for Brightness/Cell number (Lcell): incubated overnight
Protocol: Various calcium salts were dispersed in water so that the concentration calculated in terms of calcium ion would be 0.89 M, this obtained dispersed solution was then sterilized in an autoclave (at 120° C. for 20 minutes), and thereby various calcium salt stock dispersed solutions were prepared.
Then, according to Table 11, each calcium salt stock aqueous dispersed solution was added to a medium (manufactured by KURABO […] LTD., HuMedia-KG2) while pipetting so that that a predetermined supplemented concentration calculated in terms of calcium ion would be obtained, and thereby a calcium salt supplemented medium was prepared.
On a culture plate of 24-wells to which the same medium as used in the preparation of the above-mentioned calcium salt supplemented medium was added, human skin keratinocytes (manufactured by KURABO […] LTD., NHEK) were inoculated so that the cell density would be 3,800 cells/cm^2, and this was cultured for 3 days (37° C., 5% CO2). Then, this medium was exchanged with the calcium salt supplemented medium prepared as mentioned above and incubated for overnight (37° C., 5% CO2).
Whether filaggrin is produced by a calcium salt was examined using fluorescent immunostaining methods by Anti-Filaggrin/FLG, Rabbit-Poly, Alexa Fluor 488 (manufactured by BIS, hereinafter referred to as “Anti-FLG” as well). Moreover, for comparing the staining, DAPI (4′,6-diamidino-2-phenylindole dihydrochloride, manufactured by Wako Pure Chemical Industries, Ltd) was used to stain the nucleus.
That is to say that the above-mentioned incubated cells for overnight were washed with PBS and fixed with 4% paraformaldehyde solution (manufactured by Wako Pure Chemical Industries, Ltd). The fixed cells were permeabilized with 0.1% Triton-X 100, incubated for overnight with Anti-FLG PBS solution (×50) at 4° C., and then stained with a PBS solution of 100 nM DAPI. Note that the cells were washed with PBS after every operation.
For calculating the relative production amount of filaggrin, a fluorescent microscopic image of the above-mentioned stained cells was taken. The brightness of the image was quantified using Photoshop CS3, and this was normalized by dividing the obtained numerical value with cell numbers (Brightness/Cell number; Lcell). Moreover, the increase rate of brightness by adding various calcium salts in comparison with Lcell of the Comparative Test Example 2 in which calcium salt aqueous dispersed solution has not been added to the medium was calculated.

[2] = system: filaggrin production in human skin keratinocytes (NHEK); assay: Filaggrin production test (B): calcium salt composition, fluorescent immunostaining; type: cell-based; conditions: for Increase rate of brightness: unsupplemented = 100
Protocol: Then, according to Table 12, the calcium salt stock aqueous dispersed solution was added to the same medium as used in filaggrin production test (A) while pipetting so that a predetermined supplemented concentration calculated in terms of calcium ion would be obtained, and thereby a calcium salt supplemented medium was prepared.
On a culture plate of 24-wells to which the same medium as used in filaggrin production test (A) was added, human skin keratinocytes (manufactured by KURABO […] LTD., NHEK) were inoculated so that the cell density would be 3,800 cells/cm^2, and this was cultured for 3 days (37° C., 5% CO2). Then, this medium was exchanged with the calcium salt supplemented medium prepared as mentioned above and incubated for a day or two (37° C., 5% CO2). These incubated cells were stained as in the above-mentioned filaggrin production test (A), and Lcell and the increase rate of brightness were calculated.

[3] = supplemented concentration calculated in terms of calcium ion 0.89 mM
[4] = supplemented concentration calculated in terms of calcium ion 1.78 mM
[5] = calcium ion 0.09 mM, cells incubated for 1 day
[6] = calcium ion 0.09 mM, cells incubated for 2 days
[7] = calcium ion 0.89 mM, cells incubated for 1 day
[8] = calcium ion 0.89 mM, cells incubated for 2 days

Compound | Increase rate of brightness ([1]; calcium ion 0.89 mM) | Increase rate of brightness ([1]; calcium ion 1.78 mM) | Filaggrin production compared to calcium chloride ([1]; human skin keratinocytes, Table 11) | Brightness/Cell number (Lcell) [1, 3] | Brightness/Cell number (Lcell) [1, 4] | Brightness/Cell number (Lcell) [2, 5] | Increase rate of brightness [2, 5] | Brightness/Cell number (Lcell) [2, 6] | Increase rate of brightness [2, 6] | Brightness/Cell number (Lcell) [2, 7] | Increase rate of brightness [2, 7] | Brightness/Cell number (Lcell) [2, 8] | Increase rate of brightness [2, 8]
O=P([O-])([O-])OP(=O)([O-])[O-].[Ca+2].[Ca+2] [Calcium pyrophosphate] | 290% | 260% | relatively high filaggrin production as compared to that of calcium chloride | 0.28 | 0.25 | – | – | – | – | – | – | – | –
O=P([O-])(O)O.O=P([O-])(O)O.[Ca+2] [Calcium dihydrogen phosphate] | 180% | – | – | 0.17 | – | – | – | – | – | – | – | – | –
Calcium glycerophosphate | – | 200% | – | – | 0.19 | – | – | – | – | – | – | – | –
[Ca+2].[Cl-].[Cl-] [Calcium chloride] | – | 130% | – | – | 0.12 | 0.20 | 83% | 0.16 | 89% | 0.23 | 96% | 0.20 | 110%
